Measured values taken from article PMC3356383, “Efficacious Intermittent Dosing of a Novel JAK2 Inhibitor in Mouse Models of Polycythemia Vera” (PLoS ONE, 2012).

Experiments:
Experiment in all cases: Kinase profiling (Millipore)
Assay type in all cases: biochemical
Details in all cases: IC50s measured at ATP Km, fold increase relative to JAK2
[1] = system: Flt3
Procedure: (§1) Kinase profiling was conducted by Millipore (Billerica, MA).
(§2) Supplementary file pone.0037207.s003.doc: Table S1 Recombinant Kinase Selectivity Profile of MRLB-11055. IC50s measured at ATP Km, and fold increase relative to JAK2 is reported. (DOC) Click here for additional data file.

[2] = system: Fgr
Procedure: as §1, §2

[3] = system: PRK2
Procedure: as §1, §2

[4] = system: ACK1
Procedure: as §1, §2

[5] = system: Arg
Procedure: as §1, §2

[6] = system: Yes
Procedure: as §1, §2

[7] = system: ARK5
Procedure: as §1, §2

[8] = system: Bmx
Procedure: as §1, §2

[9] = system: CaMKIIγ
Procedure: as §1, §2

[10] = system: PTK5
Procedure: as §1, §2

[11] = system: Lyn
Procedure: as §1, §2

[12] = system: MLK1
Procedure: as §1, §2

[13] = system: Fms
Procedure: as §1, §2

[14] = system: TrkB
Procedure: as §1, §2

[15] = system: Hck
Procedure: as §1, §2

[16] = system: BTK
Procedure: as §1, §2

[17] = system: Lck
Procedure: as §1, §2

[18] = system: Fyn
Procedure: as §1, §2

[19] = system: CaMKIIδ
Procedure: as §1, §2

[20] = system: cSRC
Procedure: as §1, §2

NC(=O)c1cnc(N[C@H](C2CC2)C(F)(F)F)c2c1[nH]c1cc(-c3cnc(N)nc3)ccc12 [MRLB-11055]
Fold-Shift /JAK2, Flt3 [1]: 3 fold
Fold-Shift /JAK2, Fgr [2]: 5 fold
Fold-Shift /JAK2, PRK2 [3]: 13 fold
Fold-Shift /JAK2, ACK1 [4]: 2 fold
Fold-Shift /JAK2, Arg [5]: 17 fold
Fold-Shift /JAK2, Yes [6]: 7 fold
Fold-Shift /JAK2, ARK5 [7]: 6 fold
Fold-Shift /JAK2, Bmx [8]: 4 fold
Fold-Shift /JAK2, CaMKIIγ [9]: 11 fold
Fold-Shift /JAK2, PTK5 [10]: 8 fold
Fold-Shift /JAK2, Lyn [11]: 4 fold
Fold-Shift /JAK2, MLK1 [12]: 18 fold
Fold-Shift /JAK2, Fms [13]: 2 fold
Fold-Shift /JAK2, TrkB [14]: 8 fold
Fold-Shift /JAK2, Hck [15]: 3 fold
Fold-Shift /JAK2, BTK [16]: 7 fold
Fold-Shift /JAK2, Lck [17]: 5 fold
Fold-Shift /JAK2, Fyn [18]: 2 fold
Fold-Shift /JAK2, CaMKIIδ [19]: 10 fold
Fold-Shift /JAK2, cSRC [20]: 1 fold
